Measured values published in US20060270648A1, “USE OF POLYAMINES WITH ANTIBIOTICS” (priority 2005, published 2006).
Values after ≈ are worked out from the molar mass of the structure shown. Like-named read-outs stand apart in the source and are kept apart here.

Tests used:
[1] = test system: methicillin resistant Staphylococcus aureus (MRSA) Mu50; assay: MIC of antibiotics against MRSA Mu50 with or without spermine; type: cell-based; details: for MIC: Staphylococcus aureus, MRSA, read-out: MICs in the presence or absence of spermine (1 mM): No add; for MIC / MICs in the presence or absence of spermine (1 mM): No add: no spermine; for MICs in the presence or absence of spermine (1 mM): Spermine: with 1 mM spermine
[2] = test system: MRSA Staphylococcus aureus 700699; assay: MIC of antibiotics against MRSA Staphylococcus aureus 700699 with or without spermine; type: cell-based; details: for MIC: Staphylococcus aureus, MRSA, read-out: MICs in the absence or presence of spermine: No add; for MICs in the absence or presence of spermine: Spermine (1 mM): with 1 mM spermine
[3] = test system: E. coli (K10, K12, C921-61); assay: MIC of antibiotics against E. coli strains with or without polyamines (FIG. 3); type: cell-based; details: E. coli K10, K12, C921-61 and S. typhimurium LT2
[4] = test system: Salmonella typhimurium LT2; assay: microbe, parasite or virus in culture; details: Salmonella enterica, read-out: MICs in the indicated concentrations (mM) of polyamines: No add;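 note: Two-fold agar or broth dilution in Mueller-Hinton broth, MIC taken as lowest drug concentration without visible turbidity, tested alone or combined with polyamines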
[5] = test system: Salmonella typhimurium LT2; details: for MICs in the indicated concentrations (mM) of polyamines: Spermine (1 mM): with 1 mM spermine; for MICs in the indicated concentrations (mM) of polyamines: Spermidine (20 mM): with 20 mM spermidine;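 for all read-outs here: Two-fold agar or broth dilution in Mueller-Hinton broth, MIC taken as lowest drug concentration without visible turbidity, tested alone or combined with polyamines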
P. aeruginosa PAO1 = assay: MIC of antibiotics against P. aeruginosa PAO1 with or without polyamines; type: cell-based

| Molecule | MIC [1] | MICs in the presence or absence of spermine (1 mM): Spermine [1] | MIC ([2]; no spermine) | MICs in the absence or presence of spermine: Spermine (1 mM) [2] | other results |
| --- | --- | --- | --- | --- | --- |
| CC1(C)S[C@@H]2[C@H](NC(=O)[C@H](N)c3ccc(O)cc3)C(=O)N2[C@H]1C(=O)O [Amoxicillin] | 16 µg/mL | 0.5 µg/mL | 16 µg/mL | 0.5 µg/mL | – |
| CC1(C)S[C@@H]2[C@H](NC(=O)[C@H](N)c3ccccc3)C(=O)N2[C@H]1C(=O)O [Ampicillin] | ≥ 32 µg/mL | 2 µg/mL | ≥ 32 µg/mL | 2 µg/mL | susceptibility with the combination of polyamines and antibiotics [3]: improved susceptibility; MIC [4]: 16 µg/mL (≈ 45.8 µM) |
| CC1(C)S[C@@H]2[C@H](NC(=O)[C@H](NC(=O)N3CCNC3=O)c3ccccc3)C(=O)N2[C@H]1C(=O)O [Azlocillin] | 16 µg/mL | 0.5 µg/mL | 16 µg/mL | 0.5 µg/mL | susceptibility with the combination of polyamines and antibiotics [3]: improved susceptibility; MIC [4]: 16 µg/mL (≈ 34.7 µM); MICs in the indicated concentrations (mM) of polyamines: Spermine (1 mM) [5]: 4 µg/mL; MICs in the indicated concentrations (mM) of polyamines: Spermidine (20 mM) [5]: 1 µg/mL |
| C[C@H]1[C@H](NC(=O)/C(=N\OC(C)(C)C(=O)O)c2csc(N)n2)C(=O)N1S(=O)(=O)O [Aztreonam] | – | – | > 1020 µg/mL | >256 µg/mL | – |
| NCCCCCN [Cadaverine] | – | – | – | – | MICs to carbenicillin in the indicated concentration of polyamines (P. aeruginosa PAO1; 0 mM polyamine): 64 µg/mL; MICs to carbenicillin in the indicated concentration of polyamines (P. aeruginosa PAO1; 0.5 mM polyamine): 64 µg/mL; MICs to carbenicillin in the indicated concentration of polyamines (P. aeruginosa PAO1; 1 mM polyamine): 32 µg/mL; MICs to carbenicillin in the indicated concentration of polyamines (P. aeruginosa PAO1; 5 mM polyamine): 32 µg/mL; MICs to carbenicillin in the indicated concentration of polyamines (P. aeruginosa PAO1; 10 mM polyamine): 32 µg/mL; MICs to carbenicillin in the indicated concentration of polyamines (P. aeruginosa PAO1; 20 mM polyamine): 16 µg/mL |
| CCN1CCN(C(=O)N[C@@H](C(=O)N[C@@H]2C(=O)N3C(C(=O)O)=C(CSc4nnnn4C)CS[C@H]23)c2ccc(O)cc2)C(=O)C1=O [Cefoperazone] | > 512 µg/mL | 16 µg/mL | > 512 µg/mL | >4 µg/mL | – |
| CO/N=C(\C(=O)N[C@@H]1C(=O)N2C(C(=O)O)=C(COC(C)=O)CS[C@H]12)c1csc(N)n1 [Cefotaxime] | 128 µg/mL | 1 µg/mL | 128 µg/mL | 1 µg/mL | – |
| CC(C)(O/N=C(\C(=O)N[C@@H]1C(=O)N2C(C(=O)[O-])=C(C[n+]3ccccc3)CS[C@H]12)c1csc(N)n1)C(=O)O [Ceftazidime] | 256 µg/mL | 4 µg/mL | 256 µg/mL | 4 µg/mL | – |
| CO/N=C(\C(=O)N[C@@H]1C(=O)N2C(C(=O)O)=C(CSc3nc(=O)c(=O)[nH]n3C)CS[C@H]12)c1csc(N)n1 [Ceftriaxone] | > 512 µg/mL | 16 µg/mL | > 512 µg/mL | 16 µg/mL | – |
| O=C(Cc1cccs1)N[C@@H]1C(=O)N2C(C(=O)[O-])=C(C[n+]3ccccc3)CS[C@H]12 [Cephaloridine] | 16 µg/mL | 0.25 µg/mL | 16 µg/mL | 0.25 µg/mL | – |
| CC(=O)OCC1=C(C(=O)O)N2C(=O)[C@@H](NC(=O)CCC[C@@H](N)C(=O)O)[C@H]2SC1 [Cephalosporin C] | – | – | – | >128 µg/mL | MICs in the absence or presence of spermine: No add ([2]; no spermine): >512 µg/mL |
| CC(=O)OCC1=C(C(=O)O)N2C(=O)[C@@H](NC(=O)Cc3cccs3)[C@H]2SC1 [Cephalothin] | 32 µg/mL | 4 µg/mL | 32 µg/mL | 4 µg/mL | – |
| Cc1onc(-c2ccccc2Cl)c1C(=O)N[C@@H]1C(=O)N2[C@@H]1SC(C)(C)[C@@H]2C(=O)O [Cloxacillin] | ≥ 256 µg/mL | 1 µg/mL | > 256 µg/mL | 2 µg/mL | – |
| NC[C@H]1O[C@H](O[C@H]2[C@H](O)[C@@H](O[C@H]3O[C@H](CO)[C@@H](O)[C@H](N)[C@H]3O)[C@H](N)C[C@@H]2N)[C@H](O)[C@@H](O)[C@@H]1O [Kanamycin] | – | – | > 16 µg/mL | >16 µg/mL | MIC [4]: 4 µg/mL (≈ 8.26 µM); MICs in the indicated concentrations (mM) of polyamines: Spermine (1 mM) [5]: 2 µg/mL; MICs in the indicated concentrations (mM) of polyamines: Spermidine (20 mM) [5]: 4 µg/mL |
| CO[C@@]1(NC(=O)C(C(=O)O)c2ccc(O)cc2)C(=O)N2C(C(=O)O)=C(CSc3nnnn3C)CO[C@@H]21 (stereo partly shown) [Moxalactam] | – | – | > 512 µg/mL | >32 µg/mL | – |
| CCn1cc(C(=O)O)c(=O)c2cc(F)c(N3CCNCC3)cc21 [Norfioxacin] | – | 64 µg/mL | – | – | MICs in the presence or absence of spermine (1 mM): No add [1]: 128 µg/mL |
| CC1(C)S[C@@H]2[C@H](NC(=O)Cc3ccccc3)C(=O)N2[C@H]1C(=O)O [Penicillin G] | – | 0.25 µg/mL | – | 0.25 µg/mL | susceptibility with the combination of polyamines and antibiotics [3]: improved susceptibility; MICs in the presence or absence of spermine (1 mM): No add [1]: 16 µg/mL; MICs in the absence or presence of spermine: No add ([2]; no spermine): 16 µg/mL; MICs in the indicated concentrations (mM) of polyamines: No add ([5]; no polyamine): 16 µg/mL; MICs in the indicated concentrations (mM) of polyamines: Spermine (1 mM) [5]: 2 µg/mL; MICs in the indicated concentrations (mM) of polyamines: Spermidine (20 mM) [5]: 2 µg/mL |
| NCCCCN [Putrescine] | – | – | – | – | MICs to carbenicillin in the indicated concentration of polyamines (P. aeruginosa PAO1; 0 mM polyamine): 64 µg/mL; MICs to carbenicillin in the indicated concentration of polyamines (P. aeruginosa PAO1; 0.5 mM polyamine): 64 µg/mL; MICs to carbenicillin in the indicated concentration of polyamines (P. aeruginosa PAO1; 1 mM polyamine): 32 µg/mL; MICs to carbenicillin in the indicated concentration of polyamines (P. aeruginosa PAO1; 5 mM polyamine): 32 µg/mL; MICs to carbenicillin in the indicated concentration of polyamines (P. aeruginosa PAO1; 10 mM polyamine): 32 µg/mL; MICs to carbenicillin in the indicated concentration of polyamines (P. aeruginosa PAO1; 20 mM polyamine): 16 µg/mL |
| CN[C@@H]1[C@H](O)[C@H](NC)[C@H]2O[C@@]3(O)C(=O)C[C@@H](C)O[C@H]3O[C@@H]2[C@H]1O [Spectinomycin] | – | – | – | – | susceptibility with the combination of polyamines and antibiotics [3]: improved susceptibility; MIC [4]: 32 µg/mL (≈ 96.3 µM); MICs in the indicated concentrations (mM) of polyamines: Spermine (1 mM) [5]: 32 µg/mL; MICs in the indicated concentrations (mM) of polyamines: Spermidine (20 mM) [5]: 32 µg/mL |
| CN(C)[C@@H]1C(O)=C(C(N)=O)C(=O)[C@@]2(O)C(O)=C3C(=O)c4c(O)cccc4[C@@](C)(O)[C@H]3C[C@@H]12 [Tetracycline] | 32 µg/mL | 8 µg/mL | 32 µg/mL | 4 µg/mL | MIC [4]: 2 µg/mL (≈ 4.5 µM); MICs in the indicated concentrations (mM) of polyamines: Spermine (1 mM) [5]: 2 µg/mL; MICs in the indicated concentrations (mM) of polyamines: Spermidine (20 mM) [5]: 2 µg/mL |
| CN[C@H](CC(C)C)C(=O)N[C@H]1C(=O)N[C@@H](CC(N)=O)C(=O)N[C@H]2C(=O)N[C@H]3C(=O)N[C@H](C(=O)N[C@H](C(=O)O)c4cc(O)cc(O)c4-c4cc3ccc4O)[C@H](O)c3ccc(c(Cl)c3)Oc3cc2cc(c3O[C@@H]2O[C@H](CO)[C@@H](O)[C@H](O)[C@H]2O[C@H]2C[C@](C)(N)[C@H](O)[C@H](C)O2)Oc2ccc(cc2Cl)[C@H]1O [Vancomycin] | – | – | – | 4 µg/mL | MIC [2]: 4 µg/mL |
| Gentamicin | – | – | – | 256 µg/mL | MICs in the absence or presence of spermine: No add ([2]; no spermine): 256 µg/mL |
